What was measured:
[1] = tested on: myeloid cells (immune gene transcripts); test: Quantigene gene expression analysis of tumors and spleens of 4T1 mice; assay type: in vivo, mouse; conditions: Day 21 of Tx, FIG. 9
Protocol: Mouse tumor and spleen tissues were snap frozen and stored in −80° C. freezer. The frozen tissue was soaked in 10× volume of the RNAlater®-ICE (ThermoFisher) at −20° C. for >16 hr. Then the tissue was transferred into M tube (Miltenyi Biotech) containing RLT lysis buffer (Qiagen) and homogenized by gentleMACS Dissociators with program of RNA_02 (Miltenyi Biotech). Total RNA was isolated from homogenized tissue using the RNeasy Plus Mini Kit (Qiagen) RNA concentration was determined by Epoch Microplate Spectrophotometer (Biotek).
A custom-made 77-plex mouse Immune QuantiGene Assay kit (ThermoFisher Scientific) using a bead-based multiplex assay were used to measure the expression of 69 immune genes, 4 stress genes plus 4 reference genes with Luminex xMAP 200 (ThermoFisher Scientific) according to the manufacturer's instructions.

[2] = tested on: ISR-induced proteins (PSAT1, ATF4, TRIB3, ASNS); test: JESS measurement of ISR-induced proteins in primary 4T1 tumors; assay type: in vivo, mouse; conditions: 3 mg/kg HC-7366; 7 days post treatment initiation; FIG. 7C
Protocol: A small (lentil-sized) piece of frozen tumor was lysed in 500 μl of lysis buffer containing 2% SDS, 10% betamercaptoethanol, protease and phosphatase inhibitors (Roche, 04 693 159 001 and 04 906 837 001), and 1× Benzonase (Sigma, E1014-25KU). Each sample was homogenized using a polytron (PT 10-35 GT) for 30 seconds, and heated at 95° C. for 5 minutes. Protein concentrations were determined using a 660 nm Protein assay (Pierce, 22662), with the detergent compatibility reagent (Pierce, 22663), according to manufacturer instructions.
Protein samples were analyzed by JESS (ProteinSimple) using the 12-230 kDa separation module (ProteinSimple, SM-W004), and antibodies targeting PSAT1 (Proteintech, 10501-1-AP), ATF4 (AbCam, ab184909), TRIB3 (Proteintech, 66702-1), and ASNS (Proteintech, 14681-1-AP).

[3] = tested on: BM-derived MDSCs / T-cells; test: Ex vivo co-culture of bone marrow-derived MDSCs with purified T-cells in tryptophan-depleted medium; assay type: cell-based, mouse; conditions: 0.1 μM HC-7366, 1:8 MDSCs:T-cells, FIG. 11B
Protocol: Single cell suspensions from mouse bone marrow were prepared. Cells were cultured in RPMI complete medium supplemented with GMCSF & IL6 (10 μg/mL) for 4 days to differentiate cells into PMN-MDSCs. T-cells were purified from mouse spleens with EasySep Mouse T-cell isolation kit per manufacturer's instructions Purified T-cells cells were then stained with CellTrace Violet dye (thermo) per manufacturer's instructions. Differentiated MDSCs and purified T-cells were co-cultured in tryptophan-depleted medium+/−HC-7366 (0.1 μM) for […], at a ratio of 1:8 MDSCs:T-cells. Proliferation of T-cells was measured by dilution of CTV via flow cytometry on a BD LSR Fortessa.

[4] = tested on: 4T1 mouse breast cancer cell line; test: 4T1 murine orthotopic allograft tumor model, lung metastases (H&E analysis); assay type: in vivo
Description: (§1) 4T1 mouse breast cancer cell line was purchased from American Type Culture Collection (ATCC). Cells were free of human and animal pathogens as tested by h-IMPACT-I and IMPACT-III. Additionally, the genetic profile of the cells matched with the ECACC reference standard as tested by STR based DNA fingerprinting assay. Cells were maintained in RPMI 1640 with 10% FBS, and cultured up to 4 passages prior to implantation. Cells were harvested at ˜80% confluence, washed twice with RPMI 1640 without FBS and suspended in RPMI 1640 without FBS at 10×10^6 cells/mL for implantation.
(§2) Female Balb/c mice (7-8 week of age) were implanted into the right 4th mammary fat pad under Isoflurane anesthesia with 0.5×10^6 4T1 cells/mouse in a total volume of […] on Day 0 Animals were randomized into treatment groups when the average tumor volume reached 50-100 mm^3 on Day 6 post inoculation. Tumors were measured via caliper 2×/week. Tumor volume was calculated using the formula [tumor volume (mm^3)=π/6×length×width^2) Animals were sacrificed at either 7, 14, or 21 days post treatment via CO2 asphyxiation.
(§3) Lungs were perfused with PBS through the heart to remove as much blood as possible prior to collection. Spleens were collected and weighed. […] The remaining lungs were collected with remaining spleen in RPMI medium+5% FBS on ice for flow cytometry. Separate animals were enrolled for lung IHC analyses. Following euthanasia of these animals, lungs were inflated with 10% neutral buffered formalin prior to formalin fixation for 48 hours and paraffin embedding.
Multiple paraffin sections more than 200 μm apart were cut for each lung sample. […] Images were analyzed using custom-written macros in ImageJ/FIJI (NIH) analyzing the relative proportion of tumor regions to the whole lung area. The tumor regions were transferred onto the images of immune-stained sections and intensities of ASNS and PSAT1 signals within these tumor regions were quantified. […]

[5] = tested on: ISR-induced amino acid biosynthesis proteins ASNS and PSAT1; test: IHC of ISR-induced proteins in lungs of 4T1 tumor-bearing mice; assay type: in vivo, mouse; conditions: 3 mg/kg HC-7366; 21 days post treatment initiation; FIG. 7B
Protocol: as §3
Multiple paraffin sections more than 200 μm apart were cut for each lung sample. Three sections were stained with H&E on Leica Autostainer while one adjacent section was immuno-stained for ASNS (Cell Signaling #92479) and PSAT1 (Proteintech #10501-1-AP) using the Bond Rx stainer (Leica Biosystems). Stained slides were digitized using Versa 200 slide scanner (Leica Biosystems). Images were analyzed using custom-written macros in ImageJ/FIJI (NIH) analyzing the relative proportion of tumor regions to the whole lung area. The tumor regions were transferred onto the images of immune-stained sections and intensities of ASNS and PSAT1 signals within these tumor regions were quantified. (Graphing and statistics were performed using Prism Graphpad).

primary 4T1 tumors = test: 4T1 orthotopic allograft, primary tumor volume; assay type: in vivo, mouse; conditions: PO, BID; three independent studies; FIG. 4
Description: as §1, §2

S100A8 and S100A9 = S100A8 and S100A9 levels in PBMCs and plasma of 4T1 allografted mice; assay type: in vivo, mouse; conditions: FIG. 15C
[6] = tested on: CD4 and CD8 T-cells, S100A8/S100A9 in CD11b+ cells; test: Multiplex imaging of FFPE lung samples from 4T1 allografted mice; assay type: in vivo, mouse
Protocol: Slides were cut from FFPE lung samples. Slides were deparaffinized, rehydrated and heat mediated antigen retrieval was conducted with AR6 buffer (Akoya). Slides were blocked with Roche diagnostics antibody diluent (Fisher) and stained with primary antibodies for 1 hr at 110 rpm. HRP-conjugated secondary antibodies were added for 10 mins at 110 rpm followed by 10 mins with OPAL detection dye (Akoya). For multiplex staining, this process was repeated starting at the antigen retrieval stage. Multispectral Images were captured on the Polaris imaging system (Akoya) and spectral unmixing and cell segmentation was performed using Inform Tissue Finder software (Akoya). Imaging data was converted into .csv files and imported into Flowjo for immune phenotyping.
Primary antibodies used were rat anti-mouse CD4 (clone 4SM95, Thermo 14-9766-82-82, paired with Opal 620), rabbit anti-mouse Ki67 (clone SP6, Thermo MA5-14520, paired with Opal 780), rabbit anti-mouse CD8a (clone D4W2Z, Cell Signaling 98941, paired with Opal 520). Rabbit anti-mouse S1008A (Polyclonal, Proteintech 15792-1-AP, paired with Opal 520), rabbit anti-mouse S1009A (Polyclonal, Proteintech 26992-1-AP, paired with Opal 570), rabbit anti-mouse CD11b (clone EPR1344, Abcam 133357, paired with Opal 690).

MDSCs and T-cells = test: Flow cytometry of single cell suspensions from spleens and lungs of 4T1 mice; assay type: in vivo, mouse
Description: Tissue processing for single cell suspensions: • Spleen: Spleens were mashed through wetted 70 μm nylon strainer using syringe plunger. Strainers were rinsed with RPMI+5% FBS. Cells were pelleted and RBCs lysed with ACK lysis buffer (Gibco) per manufacturer's instructions. Cells were resuspended in RPMI+5% FBS and counted prior to plating for staining. • Lungs: Lungs were homogenized and enzymatically digested using a Mouse Tumor Dissociation Kit (miltenyi) per manufacturer's instructions. Cells were resuspended in RPMI+5% FBS and counted prior to plating for staining. During the digestion at 37° C., brefeldin A (Biolegend) was included in the enzyme mix to prevent export of cytokines.
1E6 cells per sample were plated in 96 well plates and extracellular staining was performed per standard procedures. Following extracellular staining, cells were fixed and permeabilized using FoxP3/Transcription Factor Staining Buffer Kit (Tonbo) and intracellular staining was performed per standard procedures. The following antibodies were used.
Following staining, flow cytometry was performed on a Cytek Aurora cytometer and analyzed using FlowJo software.

[7] = Spleen weight (splenomegaly) in 4T1 allografted mice; assay type: in vivo, mouse; conditions: especially at the activating 3 mg/kg dose level; 3 independent studies; FIG. 8B
Protocol: as §3

[8] = 4T1 allografted mice, FIGS. 15A-15B
[9] = greater in metastatic lesions than in normal tissue, FIGS. 12E-12F
[10] = 3 mg/kg HC-7366, Day 14, FIGS. 10B-10C

## CNC(=O)c1ncn2cc(-c3c(F)ccc(NS(=O)(=O)c4cc(Cl)cnc4OC)c3F)ncc12 [HC-7366, 6-(3-((5-chloro-2-methoxypyridine)-3-sulfonamido)-2,6-difluorophenyl)-N-methylimidazo[1,5-a]pyrazine-1-carboxamide]
[1]; 3 mg/kg HC-7366
  gene expression in MDSC-enriched spleens: consistent increases in immune activation transcripts and reductions in inhibitory transcripts
[1]
  gene expression in tumor tissue: did not show consistent effects
[2]
  ASNS protein in primary 4T1 tumors (JESS): Increases
  ATF4 protein in primary 4T1 tumors (JESS): Increases
  PSAT1 protein in primary 4T1 tumors (JESS): Increases
  TRIB3 protein in primary 4T1 tumors (JESS): Increases
[3]
  T-cell proliferation in the presence of BM-derived MDSCs (CTV dilution): significantly rescued T-cell proliferation
[4]; 30 mg/kg HC-7366, 4T1 allografted mice, FIGS. 1A-1B
  overall metastatic area in lung samples: significant reduction in overall metastatic area
[4]; 1-3 mg/kg HC-7366, PO, BID, lungs collected 21 days after treatment initiation, FIGS. 5A-5C
  anti-metastatic effect in lungs of tumor bearing mice: consistent anti-metastatic effect
[4]; combination therapy of HC-7366 with anti-PD-1 therapy, FIG. 2
  number of lung metastases: significant reduction in the number of lung metastases
[5]
  ASNS expression in lungs (IHC): Significant increases
  PSAT1 expression in lungs (IHC): Significant increases
Primary 4T1 tumors
  efficacy on primary 4T1 tumors (tumor volume): little to no efficacy
S100A8 and S100A9
  S100A8 and S100A9 levels in PBMCs: significant reductions
  S100A8 and S100A9 levels in plasma: significant reductions
[6]; [8]
  S100A8 and S100A9 levels in lung metastases: significant reductions
  S100A8 and S100A9 levels in normal lung tissue: significant reductions
[6]; HC-7366 treated 4T1 allografted mice, FIG. 12C
  CD8 T-cells in metastatic lesions of lung: significantly increased
[6]; HC-7366 treated 4T1 allografted mice, increase compared with that in metastatic lesions, FIG. 12D
  CD8 T-cells in normal lung tissue: to a lesser degree
[6]; [9]
  Ki67 expression of CD4 T-cells in lung: significantly increased Ki67 expression
  Ki67 expression of CD8 T-cells in lung: significantly increased Ki67 expression
MDSCs and T-cells; [10]
  CD86 on MDSCs in the spleen and lungs: significantly increased
  MHCII on MDSCs in the spleen and lungs: significantly increased
MDSCs and T-cells; 3 mg/kg HC-7366, FIG. 14A
  CD98 expression on CD8 T-cells in the lungs: not on CD8 T-cells
  CD98 expression on MDSCs in the lungs: significantly increased
MDSCs and T-cells; 3 mg/kg HC-7366, both cell subsets, FIG. 14B
  CD98 expression on MDSCs and CD8 T-cells in the spleen: increased CD98 expression
MDSCs and T-cells; 3 mg/kg HC-7366, both organs, FIG. 10A
  MDSC frequency in spleens and lungs: significantly reduced
MDSCs and T-cells; Day 21 of Tx, FIGS. 13A-13B
  activation markers of CD4 and CD8 T-cells in lungs (intracellular flow cytometry): significantly increased activation markers
MDSCs and T-cells; Day 21 of Tx, FIGS. 13C-13D
  activation markers of CD4 and CD8 T-cells in spleens (intracellular flow cytometry): not in spleens
[7]
  splenomegaly (spleen weight): significantly decreases splenomegaly

From patent US20260137679A1, “GCN2 INHIBITOR FOR TREATING METASTASES” (HIBERCELL, INC., priority 2022, published 2026)
